Test results: US20250206708A1, “AN OXAZIRIDINE PLATFORM FOR TARGETING FUNCTIONAL ALLOSTERIC METHIONINE SITES” (Novartis AG, priority 2022, published 2025)

System: CDK4
Assay: Competition and pulldown of Compound 300/Compound 148 in CDK4-overexpressing MCF-7 lysate
Assay type: binding, human
Settings: varying Compound 148 prior to 500 μM Compound 300, CDK4 overexpression
Description: MCF-7 cells were grown to 40% confluency in 3 mL DMEM media (Gibco) containing 10% (v/v) FBS in a 6-well chamber at 37° C., 5% CO2. Transfection was then performed as per Lipofectamine 2000 protocol (Invitrogen). Briefly, 0 or 2.5 μg of pcDNA3.1(+)-FLAG-TEV-CDK4 expression construct was introduced at 0:0, 2:1 and 3:1 transfection reagent:DNA. The lipid-DNA complex was incubated for 30 mins at 23° C. in Opti-MEM media (Gibco). Then, 250 μL complex was added to 2.75 mL DMEM containing no FBS. 3 mL DMEM+DNA was added to each well, while control wells received DMEM only. Cells were incubated for 6H at 37° C., 5% CO2. The media was then aspirated, and cells were given 3 mL DMEM+10% FBS and left to incubate for an additional 30H at 37° C., 5% CO2. Cells were washed 3× in 500 μL ice-cold PBS then harvested by scraping in 200 μL ice-cold PBS+1% Triton X-100 containing EDTA-free protease inhibitors (Roche). Cells were lysed at 4° C. for 30 mins while rocking. Lysate was clarified by centrifugation at 10,000×g at 4° C. for 15 mins. The supernatant was then transferred to a fresh prechilled 1.5 mL microcentrifuge tube. Protein concentration was normalized to 2.0 mg/mL via BCA assay (Pierce; cat no. 23225). […] CDK4 expression was quantified by densitometry (ImageJ) and normalized to the actin loading control. […]

O=C(N1CC2COCC2C1)N1OC1c1ccccc1 (stereo not shown) [Compound 148]
CDK4 signal in eluted proteins after pulldown (competition with Compound 300): dose-dependent decrease in signal in eluted proteins
